# Test results from patent publication US20250090441A1, “ANTI-CARIES PEPTIDES WITH ANTIMICROBIAL AND REMINERALIZING PROPERTIES AND METHODS THEREOF” (THE UNIVERSITY OF HONG KONG, priority 2023, published 2025).
# Where a SMILES comes first, the peptide text is derived from it.
# How the values were obtained:
# [1] = test system: Candida albicans in multiple-species cariogenic biofilm; test: Multiple-species cariogenic biofilm, PMA-qPCR; assay type: cell-based; conditions: three-species biofilm treated with GAPI, n=6 per group
# Description: (§1) A multiple-species cariogenic biofilm consisting of Streptococcus mutans, Lacticaseibacillus casei and Candida albicans was cultured to assess the anti-biofilm properties of GAPI. The culture medium was modified-artificial saliva as described in a previous protocol (Yassin et al. 2016). The biofilm was cultured on glass slides in 24-well plates with 1×10^7 Streptococcus mutans, 1×10^7 Lacticaseibacillus casei and 1×10^5 Candida albicans for 48 h. The biofilm was then treated with GAPI. The biofilm with no treatment was the negative control. After another 48-h incubation, the biofilm was collected for sequent assessments. The architecture of the multiple-species biofilm was assessed using scanning electron microscopy (SEM) and confocal laser scanning microscopy (CLSM). The sample was prepared with our published protocol (Niu et al. 2021d). The growth kinetics of the multiple-species biofilm were analyzed using propidium monoazide-quantitative polymerase chain reaction (PMA-qPCR) (Loozen et al. 2011). Biofilm was suspended in phosphate-buffered solution. The suspension was treated with propidium monoazide (PMA) (Biotium, San Francisco, USA) and exposed to halogen light photoactivation (PMA-Lite™, Biotium, San Francisco, USA). The brightness (luminosity) of the light device is 600-800 millicandela and its wavelength is 465-475 nm. Then deoxyribonucleic acid (DNA) was extracted from PMA-treated biofilm suspension using QIAamp DNA Mini Kit (QIAGEN, Dusseldorf, Germany). The oligonucleotide primers and TaqMan probes were used to quantify multiple-species cariogenic biofilm species: SMUT-forward(F), SMUT-reverse(R) and SMUT-probe(P) for Streptococcus mutans, Lc-F, Lc-R, Lc-P for Lactobacillus casei and Ca—F, Ca—R and Ca-P for Candida albicans […]. […]
# (§2) Biofilm was suspended in phosphate-buffered solution. […] The oligonucleotide primers and TaqMan probes were used to quantify multiple-species cariogenic biofilm species: SMUT-forward(F), SMUT-reverse(R) and SMUT-probe(P) for Streptococcus mutans, Lc-F, Lc-R, Lc-P for Lactobacillus casei and Ca—F, Ca—R and Ca-P for Candida albicans (Table 3). […]
# [2] = test system: Lacticaseibacillus casei in multiple-species cariogenic biofilm; test: Multiple-species cariogenic biofilm, PMA-qPCR; assay type: cell-based; conditions: three-species biofilm treated with GAPI, n=6 per group
# Description: as §1, §2
# [3] = test system: Streptococcus mutans in multiple-species cariogenic biofilm; test: Multiple-species cariogenic biofilm, PMA-qPCR; assay type: cell-based; conditions: three-species biofilm treated with GAPI, n=6 per group
# Description: as §1, §2
# [4] = test system: S. mutans biofilm (ATCC 35668) on dentine blocks; test: Antibiofilm effect on dentine, biofilm remineralization cycling model (CLSM, CFU); assay type: cell-based, Streptococcus mutans; conditions: 160 μM GAPI, 7 days cycling, n = 8
# Source text: Dentine slices, 2 mm thick, were cut from sound extracted third molars. Ultra-fine 4000-grit sandpaper was used to polish these slices. Slices with defects were eliminated based on a stereomicroscope observation. A total of forty dentine slices were selected. Each slice was separated into two blocks and assigned to two groups. Nail varnish was used to coat half of the blocks as an internal control. S. mutans American Type Culture Collection 35668 was utilized in the present study. All the dentine blocks were placed into S. mutans culture (10^8 cells/mL) in a brain-heart infusion (BHI) broth containing 5% glucose to generate artificial caries. After a 3-day anaerobic culture at 37° C., the depth of the caries lesion surface was around 96 μm, which was observed using micro-computed tomography (micro-CT). […]
# CLSM (Fluoview FV 1000, Olympus, Tokyo, Japan) was utilized to capture images to assess the S. mutans biofilm viability (n=8 for each group). […] The red-green ratio represented the dead-live ratio calculated using Image J version 1.53 t (National Institute of Health, Bethesda, MD, USA).
# To determine the S. mutans biofilm growth kinetics, the colony-forming units (CFUs) were counted (n=8 for each group). […] All the plates were cultured anaerobically for 48 h at 37° C. before the CFUs were counted. The log CFU was calculated for a statistical analysis.
structure (smiles),measurement,setting,value
"CC(C)[C@@H]1NC(=O)[C@H](CCCN=C(N)N)NC(=O)[C@H](Cc2ccccc2)NC(=O)[C@@H](NC(=O)[C@H](Cc2c[nH]c3ccccc23)NC(=O)[C@H](CCCN=C(N)N)NC(=O)[C@H](CCCN=C(N)N)NC(=O)c2cc(O)c(O)c(O)c2)CSSC[C@@H](C(=O)N[C@@H](CCCN=C(N)N)C(=O)O)NC(=O)[C@H](CCCCN)NC(=O)[C@H](CCCN=C(N)N)NC(=O)[C@H](Cc2ccc(O)cc2)NC(=O)[C@@H]2CSSC[C@H](NC1=O)C(=O)N[C@@H](Cc1ccc(O)cc1)C(=O)N[C@@H](CCCN=C(N)N)C(=O)NCC(=O)N[C@@H](Cc1ccccc1)C(=O)N2 [GAPI, Gallic-Acid-Polyphemusin-I] (HELM PEPTIDE1{[O=C(c1cc(O)c(O)c(O)c1)[*:2]].R.R.W.C.F.R.V.C.Y.R.G.F.C.Y.R.K.C.R}$PEPTIDE1,PEPTIDE1,5:R3-18:R3|PEPTIDE1,PEPTIDE1,9:R3-14:R3$$$V2.0)",log 10 cell counts of Candida albicans,[1],6.63±0.55
same,log 10 cell counts of Lacticaseibacillus casei,[2],7.33±0.38
same,log 10 cell counts of Streptococcus mutans,[3],6.05±0.37
same,Viability: Dead-to-live ratio,[4]; CLSM,0.77±0.13
same,Kinectics: Log10 CFU,[4],7.45±0.32
